Results from paper PMC3669539, “Explant cultures of Rpe65^−/− mouse retina: a model to investigate cone opsin trafficking” (Molecular Vision, 2013).

Target: T1, mouse UV cone opsin (Mus musculus, UniProt P51491)
T1 construct: gene Opn1sw; pMT-2 vector, COS-1 cell membranes; transducin from bovine retina as read-out
T1 sequence (P51491 1-346): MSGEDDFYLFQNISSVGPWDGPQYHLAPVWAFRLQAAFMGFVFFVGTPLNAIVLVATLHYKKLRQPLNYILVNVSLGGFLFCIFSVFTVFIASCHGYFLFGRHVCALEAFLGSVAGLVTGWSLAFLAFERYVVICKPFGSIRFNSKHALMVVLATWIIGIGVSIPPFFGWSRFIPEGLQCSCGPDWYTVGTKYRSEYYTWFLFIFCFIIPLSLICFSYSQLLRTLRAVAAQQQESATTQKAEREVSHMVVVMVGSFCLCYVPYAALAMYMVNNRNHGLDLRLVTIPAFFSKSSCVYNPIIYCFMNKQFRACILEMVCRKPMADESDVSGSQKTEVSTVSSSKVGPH
Test: transducin activation, radioactive GTPgammaS35 filter-binding assay
Format: biochemical
Conditions: agonist, 20 or 200 µM; COS-1 membranes, bovine transducin 2.5 µM, 3 µM GTPgammaS, pH 6.4, 50 mM MgCl2, dim red light

CC1=C(/C=C/C(C)=C/C=C/C(C)=C/C(=O)O)C(C)(C)CCC1 [all-trans retinoic acid]
transducin activation, radioactive GTPgammaS35 filter-binding assay: RA, on the other hand, did increase mouse UV-opsin activity significantly
